Assay results: PubChem BioAssay (NCI)
Values joined by “and” are separate entries in the source; they are usually repeats but may differ in a detail not shown here. Equal values may be shown once.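 The compound was tested at five concentrations on cells cultured in 96-well plates, with a 48-hour exposure period. GI50 is the concentration that inhibits growth by half. TGI: concentration producing complete growth inhibition.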

system: HOP-62 NSCLC; experiment: growth of human tumour cells (NCI), 48 h

Compared with `CCC[CH2][Sn]1([CH2]CCC)[O]CC(CN2CCCC2)[O]1` (centres undefined), `CCOC(=O)c1c(C)n(Cc2ccc(Cl)cc2Cl)c2c1c(CN(C)C)c(O)c1[nH]cnc12` is 2.7-fold lower in GI50: 34.1 µM for the first, 12.8 µM for the second.

`COc1ccc(Cn2cc3c(c2-c2ccccc2)CC(C)(C)c2cnoc2-3)cc1` gave a GI50 of 4.05 µM.

Compared with `CCC[CH2][Sn]1([CH2]CCC)[O]CC(CN2CCCC2)[O]1` (centres undefined), `Oc1cccnc1CN1CCCCC1` is higher in TGI: 73.8 µM for the first, over 100 µM for the second.

Compared with `CCOC(=O)c1c(C)n(Cc2ccc(Cl)cc2Cl)c2c1c(CN(C)C)c(O)c1[nH]cnc12`, `CCOc1ccccc1NC(=O)CC(C(=O)OC)C(=O)C(=O)OC` (centres undefined) is higher in TGI: 29.5 µM for the first, over 100 µM for the second.

`COC(=O)C1=C(C)N(NC(=O)OC(C)(C)C)C(=O)C1=P(c1ccccc1)(c1ccccc1)c1ccccc1` and `O=C1OC(c2ccccc2)=N/C1=C\c1cccc2ccccc12` cannot be ordered by TGI: over 100 µM for the first, over 100 µM for the second.

`C[C@@H]1CC(=O)C2CCCC1C2=O` (some centres undefined) and `COc1ccc(Cn2cc3c(c2-c2ccccc2)CC(C)(C)c2cnoc2-3)cc1` cannot be ordered by TGI: over 100 µM for the first, over 100 µM for the second.

For `COc1cccc2c1C(=O)c1c(O)c3c(c(O)c1C2=O)C[C@@](O)(C(C)=O)C[C@@H]3OC1OC(C)C(O)C(N)C1Br` (some centres undefined), the TGI was 0.0785 µM and 0.236 µM.

system: HT29 colon; experiment: growth of human tumour cells (NCI), 48 h

Going from `CN1CCN(CCCOc2ccc3nc(Nc4ccc(Cl)c(C(F)(F)F)c4)ccc3c2)CC1` to `Cc1cc(C(=O)Nc2ncc(Cc3cccc(C(F)(F)F)c3)s2)c2ccccc2n1`, the GI50 falls from 2.67 µM to 1.14 µM (2.3-fold).

Compared with `CC(C)n1nc(-c2cc3cc(O)ccc3[nH]2)c2c(N)ncnc21`, `Clc1ccc(C2=Nn3c(COc4ccccc4Cl)nnc3SC2)c(Cl)c1` is 30-fold higher in GI50: 0.465 µM for the first, 14 µM for the second.

Compared with `CCCCC(O)(c1ccc(Cl)cc1)C(CN1CCOCC1)c1ccc(Cl)cc1` (centres undefined), `Cc1ccc(C(=O)CN(/C=C/C(=O)C(F)(F)F)c2ccc(S(N)(=O)=O)cc2)cc1` is higher in GI50: 4.14 µM for the first, over 100 µM for the second.

`O=C1OC(C(O)CO)C(=O)C1=O` (centres undefined) and `CC(=O)/C(C)=N/NC(=O)c1ccccc1O` cannot be ordered by GI50: 4240 µM for the first, over 100 µM for the second.

`CC(=O)[O-].CCN(CC)c1ccc(C=NCCN=Cc2ccc(N(CC)CC)cc2[O-])c([O-])c1.[Mn+3]` and `CCOC(=O)c1c(C)n(Cc2ccc(Cl)cc2Cl)c2c1c(CN(C)C)c(O)c1[nH]cnc12` are within 1.5-fold of each other in GI50: 19.9 µM for the first, 18 µM for the second.

Going from `CCC[CH2][Sn]1([CH2]CCC)[O]CC(CN2CCCC2)[O]1` (centres undefined) to `COc1ccc(Cn2cc3c(c2-c2ccccc2)CC(C)(C)c2cnoc2-3)cc1`, the GI50 falls from 11.1 µM to 0.95 µM (12-fold).

First: CN1CCN(CCCOc2ccc3nc(Nc4ccc(Cl)c(C(F)(F)F)c4)ccc3c2)CC1
Second: Cc1cc(C(=O)Nc2ncc(Cc3cccc(C(F)(F)F)c3)s2)c2ccccc2n1
The TGI of the first is lower: 8.38 µM for the first, over 100 µM for the second.

`CC(C)n1nc(-c2cc3cc(O)ccc3[nH]2)c2c(N)ncnc21` and `Clc1ccc(C2=Nn3c(COc4ccccc4Cl)nnc3SC2)c(Cl)c1` are within 1.5-fold of each other in TGI: 28.7 µM for the first, 27 µM for the second.

Compared with `CCCCC(O)(c1ccc(Cl)cc1)C(CN1CCOCC1)c1ccc(Cl)cc1` (centres undefined), `Cc1ccc(C(=O)CN(/C=C/C(=O)C(F)(F)F)c2ccc(S(N)(=O)=O)cc2)cc1` is higher in TGI: 18.2 µM for the first, over 100 µM for the second.

`NCC1Nc2ccccc2[C@@H](O)C1O` (some centres undefined) and `CC(=O)/C(C)=N/NC(=O)c1ccccc1O` cannot be ordered by TGI: over 100 µM for the first, over 100 µM for the second.

`OC[C@H]1CCCC1O` (some centres undefined) and `C[C@@H]1CC(=O)C2CCCC1C2=O` (some centres undefined) cannot be ordered by TGI: over 100 µM for the first, over 100 µM for the second.

`O=C1CCN2C(=O)CCN12` and `Oc1cccnc1CN1CCCCC1` cannot be ordered by TGI: over 100 µM for the first, over 100 µM for the second.

`O=C1OC(C(O)CO)C(=O)C1=O` (centres undefined) and `CCOc1ccccc1NC(=O)CC(C(=O)OC)C(=O)C(=O)OC` (centres undefined) cannot be ordered by TGI: over 10000 µM for the first, over 100 µM for the second.

Compared with `CC1CC[C@]2(C(=O)O)CCC3(C)C(=CC(=O)C4[C@@]5(C)CCC(=O)C(C)(C)C5CC[C@]43C)[C@@H]2[C@H]1C` (some centres undefined), `COc1cccc2c1C(=O)c1c(O)c3c(c(O)c1C2=O)C[C@@](O)(C(C)=O)C[C@@H]3OC1OC(C)C(O)C(N)C1Br` (some centres undefined) is lower in TGI: over 100 µM for the first, 0.573 µM for the second.

Going from `COc1cc2c(cc1OC)C(CC(=O)NN=C(C)C)NCC2` (centres undefined) to `CCOC(=O)c1c(C)n(Cc2ccc(Cl)cc2Cl)c2c1c(CN(C)C)c(O)c1[nH]cnc12`, the TGI falls from over 100 µM to 31.8 µM.

Compared with `CC(=O)[O-].CCN(CC)c1ccc(C=NCCN=Cc2ccc(N(CC)CC)cc2[O-])c([O-])c1.[Mn+3]`, `O=C1OC(c2ccccc2)=N/C1=C\c1cccc2ccccc12` is higher in TGI: 40.1 µM for the first, over 100 µM for the second.

First: CCC[CH2][Sn]1([CH2]CCC)[O]CC(CN2CCCC2)[O]1 (centres undefined)
Second: COc1ccc(Cn2cc3c(c2-c2ccccc2)CC(C)(C)c2cnoc2-3)cc1
The TGI of the first is 4.1-fold higher: 30.7 µM for the first, 7.53 µM for the second.

`COC(=O)C1=C(C)N(NC(=O)OC(C)(C)C)C(=O)C1=P(c1ccccc1)(c1ccccc1)c1ccccc1` gave a TGI of over 100 µM.

system: SNB-19 CNS; experiment: growth of human tumour cells (NCI), 48 h

First: CN1CCN(CCCOc2ccc3nc(Nc4ccc(Cl)c(C(F)(F)F)c4)ccc3c2)CC1
Second: Cc1cc(C(=O)Nc2ncc(Cc3cccc(C(F)(F)F)c3)s2)c2ccccc2n1
The GI50 of the first is 5.4-fold higher: 16.2 µM for the first, 3.02 µM for the second.

Going from `CC(C)n1nc(-c2cc3cc(O)ccc3[nH]2)c2c(N)ncnc21` to `Clc1ccc(C2=Nn3c(COc4ccccc4Cl)nnc3SC2)c(Cl)c1`, the GI50 rises from 1.52 µM to 30.4 µM (20-fold).

First: CCCCC(O)(c1ccc(Cl)cc1)C(CN1CCOCC1)c1ccc(Cl)cc1 (centres undefined)
Second: Cc1cccc(N2CCN(C(=S)c3ccc4c(c3)OCO4)CC2)c1
The GI50 of the first is 9.3-fold higher: 15.3 µM for the first, 1.64 µM for the second.

`O=C1OC(C(O)CO)C(=O)C1=O` (centres undefined) and `CC(=O)/C(C)=N/NC(=O)c1ccccc1O` cannot be ordered by GI50: 8280 µM for the first, over 100 µM for the second.

`CC(=O)[O-].CCN(CC)c1ccc(C=NCCN=Cc2ccc(N(CC)CC)cc2[O-])c([O-])c1.[Mn+3]` and `CCOC(=O)c1c(C)n(Cc2ccc(Cl)cc2Cl)c2c1c(CN(C)C)c(O)c1[nH]cnc12` are within 1.5-fold of each other in GI50: 19.9 µM for the first, 18.4 µM for the second.

Going from `CCC[CH2][Sn]1([CH2]CCC)[O]CC(CN2CCCC2)[O]1` (centres undefined) to `COc1cccc2c1C(=O)c1c(O)c3c(c(O)c1C2=O)C[C@@](O)(C(C)=O)C[C@@H]3OC1OC(C)C(O)C(N)C1Br` (some centres undefined), the GI50 falls from 18.7 µM to 0.025 µM (750-fold).

`COc1ccc(Cn2cc3c(c2-c2ccccc2)CC(C)(C)c2cnoc2-3)cc1` was tested, and the GI50 was 4.96 µM.

First: CN1CCN(CCCOc2ccc3nc(Nc4ccc(Cl)c(C(F)(F)F)c4)ccc3c2)CC1
Second: Cc1cc(C(=O)Nc2ncc(Cc3cccc(C(F)(F)F)c3)s2)c2ccccc2n1
The TGI of the first is lower: 34.5 µM for the first, over 100 µM for the second.

Compared with `CC(C)n1nc(-c2cc3cc(O)ccc3[nH]2)c2c(N)ncnc21`, `Clc1ccc(C2=Nn3c(COc4ccccc4Cl)nnc3SC2)c(Cl)c1` is higher in TGI: 17.9 µM for the first, over 100 µM for the second.

Going from `CCCCC(O)(c1ccc(Cl)cc1)C(CN1CCOCC1)c1ccc(Cl)cc1` (centres undefined) to `Cc1cccc(N2CCN(C(=S)c3ccc4c(c3)OCO4)CC2)c1`, the TGI rises from 36.6 µM to over 100 µM.

`NCC1Nc2ccccc2[C@@H](O)C1O` (some centres undefined) and `CC(=O)/C(C)=N/NC(=O)c1ccccc1O` cannot be ordered by TGI: over 100 µM for the first, over 100 µM for the second.

`OC[C@H]1CCCC1O` (some centres undefined) and `C[C@@H]1CC(=O)C2CCCC1C2=O` (some centres undefined) cannot be ordered by TGI: over 100 µM for the first, over 100 µM for the second.

`O=C1CCN2C(=O)CCN12` and `Oc1cccnc1CN1CCCCC1` cannot be ordered by TGI: over 100 µM for the first, over 100 µM for the second.

`O=C1OC(C(O)CO)C(=O)C1=O` (centres undefined) and `CCOc1ccccc1NC(=O)CC(C(=O)OC)C(=O)C(=O)OC` (centres undefined) cannot be ordered by TGI: over 10000 µM for the first, over 100 µM for the second.

`COc1ccc(/C=C/c2ccnc3ccccc23)c(OC)c1` and `COc1ccc(Cn2cc3c(c2-c2ccccc2)CC(C)(C)c2cnoc2-3)cc1` cannot be ordered by TGI: over 10 µM for the first, over 100 µM for the second.

First: Clc1nc(Cl)c(Cl)c(-c2ccccc2)n1
Second: O=C1OC(c2ccccc2)=N/C1=C\c1cccc2ccccc12
The TGI of the first is lower: 33.3 µM for the first, over 100 µM for the second.

`CC1CC[C@]2(C(=O)O)CCC3(C)C(=CC(=O)C4[C@@]5(C)CCC(=O)C(C)(C)C5CC[C@]43C)[C@@H]2[C@H]1C` (some centres undefined) and `COc1cc2c(cc1OC)C(CC(=O)NN=C(C)C)NCC2` (centres undefined) cannot be ordered by TGI: over 100 µM for the first, over 100 µM for the second.

`CC(=O)[O-].CCN(CC)c1ccc(C=NCCN=Cc2ccc(N(CC)CC)cc2[O-])c([O-])c1.[Mn+3]` and `CCOC(=O)c1c(C)n(Cc2ccc(Cl)cc2Cl)c2c1c(CN(C)C)c(O)c1[nH]cnc12` are within 1.5-fold of each other in TGI: 42.8 µM for the first, 32.3 µM for the second.

Going from `CCC[CH2][Sn]1([CH2]CCC)[O]CC(CN2CCCC2)[O]1` (centres undefined) to `COC(=O)C1=C(C)N(NC(=O)OC(C)(C)C)C(=O)C1=P(c1ccccc1)(c1ccccc1)c1ccccc1`, the TGI rises from 44.3 µM to over 100 µM.
